What all share (type): biochemical
Assay [1] addresses T1, LATS1 (Homo sapiens, UniProt O95835).
T1 sequence (O95835 1-1130): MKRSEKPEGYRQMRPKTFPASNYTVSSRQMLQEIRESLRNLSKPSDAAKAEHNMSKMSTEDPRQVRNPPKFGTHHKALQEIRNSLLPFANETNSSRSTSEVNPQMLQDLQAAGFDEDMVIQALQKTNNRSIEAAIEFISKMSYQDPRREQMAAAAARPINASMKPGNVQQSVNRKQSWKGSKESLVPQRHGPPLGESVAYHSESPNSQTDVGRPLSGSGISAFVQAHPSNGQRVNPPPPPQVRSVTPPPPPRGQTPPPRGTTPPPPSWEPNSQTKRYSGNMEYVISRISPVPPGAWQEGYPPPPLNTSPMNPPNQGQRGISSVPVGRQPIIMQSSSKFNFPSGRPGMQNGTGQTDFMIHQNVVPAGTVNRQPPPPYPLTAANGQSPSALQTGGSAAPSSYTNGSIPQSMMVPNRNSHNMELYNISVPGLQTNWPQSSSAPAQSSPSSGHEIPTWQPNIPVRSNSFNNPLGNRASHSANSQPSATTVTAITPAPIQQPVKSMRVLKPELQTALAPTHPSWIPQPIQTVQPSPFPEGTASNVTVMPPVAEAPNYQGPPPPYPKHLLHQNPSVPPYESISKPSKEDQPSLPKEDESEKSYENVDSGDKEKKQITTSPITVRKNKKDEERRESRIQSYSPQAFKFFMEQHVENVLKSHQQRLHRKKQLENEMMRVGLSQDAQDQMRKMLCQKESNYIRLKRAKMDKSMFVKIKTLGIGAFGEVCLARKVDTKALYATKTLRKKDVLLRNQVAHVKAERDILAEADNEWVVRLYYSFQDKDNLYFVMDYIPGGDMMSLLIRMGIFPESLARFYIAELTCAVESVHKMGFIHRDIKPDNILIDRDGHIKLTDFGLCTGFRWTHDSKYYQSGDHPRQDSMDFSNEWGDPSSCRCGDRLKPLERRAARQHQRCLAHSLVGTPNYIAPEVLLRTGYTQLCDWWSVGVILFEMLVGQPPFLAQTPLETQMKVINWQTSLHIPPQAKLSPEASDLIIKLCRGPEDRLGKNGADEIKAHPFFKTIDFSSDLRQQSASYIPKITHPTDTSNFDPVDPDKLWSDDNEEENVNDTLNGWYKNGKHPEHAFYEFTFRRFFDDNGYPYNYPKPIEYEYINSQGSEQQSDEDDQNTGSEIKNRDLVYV
The assay is described as follows: RBC HotSpot kinase assay (33P-ATP, P81 filter-binding), LATS1. To be noted: Table 28, biochemical kinase assay; read-out: LATS1 IC50. Summed up:
(§1)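 Kinase in Hepes pH 7.5 buffer with Mg2+, EGTA, Brij35, BSA, vanadate, DTT and 1% DMSO, plus required cofactors and substrate, was preincubated 20 min at room temperature with compound. Reaction was started with 33P-ATP and run 2 h, then detected by P81 filter binding. IC50 (nM) came from 10-point singlet curves.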

Assay [2] has as its target T2, LATS2 (Homo sapiens, UniProt Q9NRM7).
T2 sequence (Q9NRM7 1-1088): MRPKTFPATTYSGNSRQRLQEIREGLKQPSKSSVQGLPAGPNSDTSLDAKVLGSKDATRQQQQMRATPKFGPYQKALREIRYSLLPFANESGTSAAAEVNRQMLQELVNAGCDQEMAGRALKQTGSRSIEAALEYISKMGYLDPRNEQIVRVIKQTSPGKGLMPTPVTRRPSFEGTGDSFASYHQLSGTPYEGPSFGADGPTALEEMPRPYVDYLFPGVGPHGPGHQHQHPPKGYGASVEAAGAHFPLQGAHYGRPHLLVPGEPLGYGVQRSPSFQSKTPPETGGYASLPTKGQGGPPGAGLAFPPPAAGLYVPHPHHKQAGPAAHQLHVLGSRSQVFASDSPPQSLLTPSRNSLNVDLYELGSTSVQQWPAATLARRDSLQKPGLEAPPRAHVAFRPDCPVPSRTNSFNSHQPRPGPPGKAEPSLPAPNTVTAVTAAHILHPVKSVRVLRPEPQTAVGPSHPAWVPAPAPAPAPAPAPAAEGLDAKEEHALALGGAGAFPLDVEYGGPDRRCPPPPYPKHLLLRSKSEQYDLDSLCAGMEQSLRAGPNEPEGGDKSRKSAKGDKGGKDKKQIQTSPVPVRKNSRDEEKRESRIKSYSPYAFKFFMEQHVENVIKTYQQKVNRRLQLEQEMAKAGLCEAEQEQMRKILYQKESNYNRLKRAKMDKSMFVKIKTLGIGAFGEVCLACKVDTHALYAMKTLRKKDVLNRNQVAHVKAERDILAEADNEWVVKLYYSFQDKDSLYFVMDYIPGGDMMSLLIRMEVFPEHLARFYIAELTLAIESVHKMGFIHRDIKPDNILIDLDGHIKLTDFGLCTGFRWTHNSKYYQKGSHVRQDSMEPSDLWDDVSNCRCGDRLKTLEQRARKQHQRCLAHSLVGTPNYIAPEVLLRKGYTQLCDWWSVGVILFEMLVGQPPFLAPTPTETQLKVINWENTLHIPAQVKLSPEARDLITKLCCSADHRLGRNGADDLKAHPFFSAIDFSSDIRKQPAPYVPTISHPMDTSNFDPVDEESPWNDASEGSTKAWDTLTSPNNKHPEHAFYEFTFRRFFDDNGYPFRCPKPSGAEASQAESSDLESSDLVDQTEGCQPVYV
Kind of assay: RBC HotSpot kinase assay (33P-ATP, P81 filter-binding), LATS2. To be noted: Table 28, biochemical kinase assay; read-out: LATS2 IC50. In short, it runs like this: as §1

Assay [3] deals with AKT (Homo sapiens, UniProt P31749). The assay is described as follows: RBC HotSpot kinase assay (33P-ATP, P81 filter-binding), AKT. To be noted: Table 28, biochemical kinase assay; read-out: AKT IC50. In short, it runs like this: as §1

This passage reports IC50 results from US20250361230A1, “LATS Inhibitors and Uses Thereof” (The USA, as Represented by the Secretary, Dept. of Heath …, priority 2022, published 2025).

AKT, sequence (P31749 whole entry): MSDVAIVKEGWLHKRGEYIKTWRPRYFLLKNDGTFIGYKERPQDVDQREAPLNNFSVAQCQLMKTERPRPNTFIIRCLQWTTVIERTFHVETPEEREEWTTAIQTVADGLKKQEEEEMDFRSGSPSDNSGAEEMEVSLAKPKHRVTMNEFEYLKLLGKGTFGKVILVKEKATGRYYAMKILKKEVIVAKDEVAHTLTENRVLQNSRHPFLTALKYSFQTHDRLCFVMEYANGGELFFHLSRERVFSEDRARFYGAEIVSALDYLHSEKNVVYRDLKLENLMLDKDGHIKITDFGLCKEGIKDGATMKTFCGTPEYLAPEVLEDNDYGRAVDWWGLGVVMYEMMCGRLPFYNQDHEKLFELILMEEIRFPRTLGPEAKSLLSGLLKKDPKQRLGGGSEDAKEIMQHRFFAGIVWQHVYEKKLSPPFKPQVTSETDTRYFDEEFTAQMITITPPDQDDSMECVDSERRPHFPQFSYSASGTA

Regarding `O=C([C@@H]1CCCN1)N1CC(O)(c2ccc(-c3ccnc4[nH]cc(F)c34)cc2Cl)C1` [Compound 144, (S)-4-(3-chloro-4-(3-hydroxy-1-prolylazetidin-3-yl)phenyl)-3-fluoro-1H-pyrrolo[2,3-b]pyridine], the IC50 (as a rule, the midpoint of a concentration-inhibition curve) in assay [1] is 50 nM; in assay [2], 26 nM; in assay [3] it was 2770 nM.

With `NCC(=O)N1CC2(C1)CC(O)(c1c(F)cc(-c3ccnc4[nH]cc(F)c34)cc1F)C2` [Compound 145, 2-amino-1-(6-(2,6-difluoro-4-(3-fluoro-1H-pyrrolo[2,3-b]pyridin-4-yl)phenyl)-6-hydroxy-2-azaspiro[3.3]heptan-2-yl)ethan-1-one], the IC50 in assay [1] came to 28.3 nM; in assay [2], 46 nM; in assay [3] it was 1870 nM.

Consider `c1cc(-c2ccc(C3CC4CCCC(C3)N4)cc2)c2cc[nH]c2n1` (stereo not drawn) [Compound 146, 4-(4-(9-azabicyclo[3.3.1]nonan-3-yl)phenyl)-1H-pyrrolo[2,3-b]pyridine], for which the IC50 in assay [1] stood at 203 nM; in assay [2] it was 94.8 nM; in assay [3], 2460 nM.

As for `NCC(=O)N1CCC(c2ccc(-c3ccnc4[nH]cc(F)c34)cc2Cl)CC1` [Compound 148, 2-amino-1-(4-(2-chloro-4-(3-fluoro-1H-pyrrolo[2,3-b]pyridin-4-yl)phenyl)piperidin-1-yl)ethan-1-one], the IC50 in assay [1] worked out at 7.7 nM; in assay [2], 17.8 nM; in assay [3], 1080 nM.

With `NCc1ccc(-c2cc(-c3ccnc4[nH]cc(F)c34)ccc2C2CCNCC2)cc1` [Compound 149, (5′-(3-fluoro-1H-pyrrolo[2,3-b]pyridin-4-yl)-2′-(piperidin-4-yl)-[1,1′-biphenyl]-4-yl)methanamine], the 50% inhibitory concentration (IC50) was 4.3 nM in assay [1], 1 nM in assay [2] and 67.3 nM in assay [3].

In the case of `NC(=O)c1ccc(-c2cc(-c3ccnc4[nH]ccc34)ccc2C2CCNCC2)cc1` [Compound 150, 2′-(piperidin-4-yl)-5′-(1H-pyrrolo[2,3-b]pyridin-4-yl)-[1,1′-biphenyl]-4-carboxamide], the values for the IC50 in assay [1], in assay [2] and in assay [3] were 32.9 nM, 25.9 nM and 967 nM, respectively.

For `NCc1ccc(-c2cc(-c3ccnc4[nH]cc(Br)c34)ccc2C2CCNCC2)cc1` [Compound 151, (5′-(3-bromo-1H-pyrrolo[2,3-b]pyridin-4-yl)-2′-(piperidin-4-yl)-[1,1′-biphenyl]-4-yl)methanamine], the IC50 in assay [1] was found to be 16.6 nM; in assay [2], 15.1 nM; in assay [3] it was 170 nM.

For the compound `COC(=O)c1c[nH]c2nccc(-c3ccc(C4CCNCC4)c(-c4ccc(CN)cc4)c3)c12` [Compound 152, methyl 4-(4′-(aminomethyl)-6-(piperidin-4-yl)-[1,1′-biphenyl]-3-yl)-1H-pyrrolo[2,3-b]pyridine-3-carboxylate], the values for the IC50 in assay [1], in assay [2] and in assay [3] were 66.3 nM, 50.2 nM and 4410 nM, respectively.

On to `c1ccc(-c2cc(-c3ccnc4[nH]ccc34)ccc2C2CCNCC2)cc1` [Compound 153, 4-(6-(piperidin-4-yl)-[1,1′-biphenyl]-3-yl)-1H-pyrrolo[2,3-b]pyridine], for which the values for the IC50 in assay [1], in assay [2] and in assay [3] were 15.2 nM, 20.4 nM and 378 nM, respectively.

Regarding `c1cncc(-c2cc(-c3ccnc4[nH]ccc34)ccc2C2CCNCC2)c1` [Compound 154, 4-(4-(piperidin-4-yl)-3-(pyridin-3-yl)phenyl)-1H-pyrrolo[2,3-b]pyridine], the IC50 was 87 nM in assay [1], 48 nM in assay [2] and 1320 nM in assay [3].

`NCc1ccc(-c2cc(-c3ccnc4[nH]ccc34)ccc2C2CCNCC2)cc1` [Compound 155, (2′-(piperidin-4-yl)-5′-(1H-pyrrolo[2,3-b]pyridin-4-yl)-[1,1′-biphenyl]-4-yl)methanamine]: the IC50 in assay [1] turned out to be 4.3 nM; in assay [2] it was 1 nM; in assay [3], 68 nM.

In the case of `CC(C)(C)Nc1cc(-c2ccnc3[nH]cc(F)c23)ccc1C1CCNCC1` [Compound 156, N-(tert-butyl)-5-(3-fluoro-1H-pyrrolo[2,3-b]pyridin-4-yl)-2-(piperidin-4-yl)aniline], the values for the IC50 in assay [1], in assay [2] and in assay [3] were 139 nM, 121 nM and 1120 nM, respectively.

With `CC(C)(C)Nc1cc(-c2ccnc3[nH]ccc23)ccc1C1CCNCC1` [Compound 157, N-(tert-butyl)-2-(piperidin-4-yl)-5-(1H-pyrrolo[2,3-b]pyridin-4-yl)aniline], the IC50 in assay [1] came to 216 nM; in assay [2] it was 109 nM; in assay [3], 1650 nM.

On to `COCCN1CCC(c2ccc(-c3ccnc4[nH]cc(F)c34)cc2Cl)CC1` [Compound 158, 4-(3-chloro-4-(1-(2-methoxyethyl)piperidin-4-yl)phenyl)-3-fluoro-1H-pyrrolo[2,3-b]pyridine], for which the IC50 in assay [1] is 29 nM; in assay [2], 56 nM; in assay [3] it was 1150 nM.

`CN(C)CCS(=O)(=O)N1CCC(c2ccc(-c3ccnc4[nH]cc(F)c34)cc2Cl)CC1` [Compound 159, 2-((4-(2-chloro-4-(3-fluoro-1H-pyrrolo[2,3-b]pyridin-4-yl)phenyl)piperidin-1-yl)sulfonyl)-N,N-dimethylethan-1-amine]: the results for the IC50 in assay [1], in assay [2] and in assay [3] were 174 nM, 139 nM and 8520 nM, respectively.

Turning to `O=C(C1CC1)N1CCC(c2ccc(-c3ccnc4[nH]cc(F)c34)cc2Cl)CC1` [Compound 160, (4-(2-chloro-4-(3-fluoro-1H-pyrrolo[2,3-b]pyridin-4-yl)phenyl)piperidin-1-yl)(cyclopropyl)methanone], the IC50 is 451 nM in assay [1], 442 nM in assay [2] and > 10000 nM in assay [3].

In the case of `Clc1cc(-c2ccnc3[nH]ccc23)ccc1C1CCNCC1` [Compound 161, 4-(3-chloro-4-(piperidin-4-yl)phenyl)-1H-pyrrolo[2,3-b]pyridine], the IC50 in assay [1] is 8.9 nM; in assay [2] it was 21 nM; in assay [3], 753 nM.

As to `C[Si](C)(C)CCS(=O)(=O)N1CCC(c2ccc(-c3ccnc4[nH]cc(F)c34)cc2Cl)CC1` [Compound 162, 4-(3-chloro-4-(1-((2-(trimethylsilyl)ethyl)sulfonyl)piperidin-4-yl)phenyl)-3-fluoro-1H-pyrrolo[2,3-b]pyridine], the IC50 in assay [1], in assay [2] and in assay [3] was > 10000 nM in each case.
